“And” between values parts separate entries of the source, which are not always exact repeats. Identical values can stand only once. Toxic doses and inconclusive results are not listed.
System: L1210 leukemia ip in BDF1 mice, survival T/C
Assay: NCI In Vivo Anticancer Drug Screen. Data for tumor model L1210 Leukemia (intraperitoneal) in B6D2F1 (BDF1) mice
Conditions: endpoint: mean survival time, higher = longer survival
Outline: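 In this screen, tumor-bearing mice given compound are compared to those given vehicle, and their survival values are reported as a treated-to-control quotient.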

[1] = dose: 100.0 mg/kg/injection, schedule: Q04DX002 (ip), vehicle: Klucel (hydroxypropylcellulose) (HPC)
[2] = dose: 100.0 mg/kg/injection, schedule: Q01DX009 (ip), vehicle: Klucel (hydroxypropylcellulose) (HPC)
[3] = dose: 200.0 mg/kg/injection, schedule: Q01DX009 (ip), vehicle: Klucel (hydroxypropylcellulose) (HPC)
[4] = dose: 400.0 mg/kg/injection, schedule: Q01DX009 (ip), vehicle: Klucel (hydroxypropylcellulose) (HPC)
[5] = dose: 100.0 mg/kg/injection, schedule: Q04DX003 (ip), vehicle: Klucel (hydroxypropylcellulose) (HPC)
[6] = dose: 200.0 mg/kg/injection, schedule: Q04DX003 (ip), vehicle: Klucel (hydroxypropylcellulose) (HPC)

Cc1c(C)c(C)c(CN2CCCC2)c(C)c1C
T/C (dose: 12.5 mg/kg/injection, schedule: Q01DX005 (ip), vehicle: Klucel (hydroxypropylcellulose) (HPC)): 107 % of control | T/C (dose: 12.5 mg/kg/injection, schedule: Q04DX002 (ip), vehicle: Klucel (hydroxypropylcellulose) (HPC)): 109 % of control | T/C (dose: 25.0 mg/kg/injection, schedule: Q01DX005 (ip), vehicle: Klucel (hydroxypropylcellulose) (HPC)): 97 % of control | T/C (dose: 25.0 mg/kg/injection, schedule: Q04DX002 (ip), vehicle: Klucel (hydroxypropylcellulose) (HPC)): 86 % of control | T/C (dose: 35.0 mg/kg/injection, schedule: Q01DX009 (ip), vehicle: Klucel (hydroxypropylcellulose) (HPC)): 90 % of control | T/C (dose: 50.0 mg/kg/injection, schedule: Q04DX002 (ip), vehicle: Klucel (hydroxypropylcellulose) (HPC)): 112 % of control | T/C [1]: 94 % of control

CC(=O)Nc1ccc(OCCOC(=O)Nc2ccccc2C(F)(F)F)cc1
T/C [2]: 91 % of control | T/C [3]: 105 % of control | T/C [4]: 93 % of control

CCOC(=O)C1CCC(NC(=O)N(CCCl)N=O)CC1 (stereo unspecified)
T/C (dose: 3.0 mg/kg/injection, schedule: Q01DX001 (ip), vehicle: other): 109 % of control | T/C (dose: 12.0 mg/kg/injection, schedule: Q01DX001 (ip), vehicle: other): 189 % of control | T/C (dose: 16.0 mg/kg/injection, schedule: Q01DX001 (ip), vehicle: other): 281 % of control | T/C (dose: 20.0 mg/kg/injection, schedule: Q01DX001 (ip), vehicle: other): 298 % of control | T/C (dose: 21.0 mg/kg/injection, schedule: Q01DX001 (ip), vehicle: other): 315 % of control | T/C (dose: 24.0 mg/kg/injection, schedule: Q01DX001 (ip), vehicle: other): 267 % of control | T/C (dose: 30.0 mg/kg/injection, schedule: Q01DX001 (ip), vehicle: other): 283 % of control | T/C (dose: 31.0 mg/kg/injection, schedule: Q01DX001 (ip), vehicle: other): 317 % of control and 337 % of control | T/C (dose: 44.0 mg/kg/injection, schedule: Q01DX001 (ip), vehicle: other): 270 % of control | T/C (dose: 47.0 mg/kg/injection, schedule: Q01DX001 (ip), vehicle: other): 252 % of control | T/C (dose: 62.0 mg/kg/injection, schedule: Q01DX001 (ip), vehicle: other): 259 % of control | T/C (dose: 70.0 mg/kg/injection, schedule: Q01DX001 (ip), vehicle: other): 159 % of control

COc1ccc(C(=O)O)c(CC#N)c1
T/C [5]: 97 % of control | T/C [6]: 87 % of control

CC(=O)Nc1ccc(C=O)cc1
T/C (dose: 100.0 mg/kg/injection, schedule: Q01DX001 (ip), vehicle: saline): 100 % of control | T/C (dose: 200.0 mg/kg/injection, schedule: Q01DX001 (ip), vehicle: saline): 97 % of control | T/C (dose: 400.0 mg/kg/injection, schedule: Q01DX001 (ip), vehicle: saline): 116 % of control

O=C(O)c1c2ccc(Cl)cc2nc2[nH]c(=O)[nH]c(=O)c12
T/C [1]: 108 % of control | T/C (dose: 200.0 mg/kg/injection, schedule: Q04DX002 (ip), vehicle: Klucel (hydroxypropylcellulose) (HPC)): 120 % of control | T/C (dose: 400.0 mg/kg/injection, schedule: Q04DX002 (ip), vehicle: Klucel (hydroxypropylcellulose) (HPC)): 113 % of control

CCSc1nc(=S)cc(C)[nH]1
T/C [2]: 96 % of control | T/C [5]: 103 % of control | T/C [3]: 91 % of control | T/C [6]: 98 % of control | T/C [4]: 90 % of control | T/C (dose: 400.0 mg/kg/injection, schedule: Q04DX003 (ip), vehicle: Klucel (hydroxypropylcellulose) (HPC)): 87 % of control
